Read-outs that look alike come from different tables or passages of the source.
How the values were obtained:
[1] = phase I two-part drug-drug interaction study, plasma pharmacokinetics (Example 1); type: in vivo, human; details: male, human, plasma, oral
Text: The secondary objective was to provide additional information on the safety and tolerability of this dose regimen in healthy males.
This was a single center, non-randomized, DDI study in 35 (Part 1) and 38 (Part 2) healthy males. The key inclusion criterion was males aged 18 to 55 years (inclusive). […] In Part 2, co-administration with omeprazole was studied. The study design is illustrated in FIG. 1.
At least a 2-to 8-day washout occurred between each period to account for a minimum of 5 half-lives of the active moieties dosed in the preceding period.
Blood samples were collected into 6 mL K,EDTA tubes and were processed within 30 minutes of collection. The resultant plasma was then frozen within 90 minutes of collection and stored at […] until shipment to the bioanalytical laboratory.
For each comparison, PK parameters were natural log transformed and analyzed using mixed effect modeling with treatment included as a fixed effect and subject as a random effect. Adjusted geometric mean ratios (GMRs) and corresponding 90% CIs were calculated.

CYP1A2 = CYP1A2 (Homo sapiens, UniProt P05177); experiment: incubations with recombinant enzymes; type: in vitro ADME
Sequence of CYP1A2 (P05177 whole entry): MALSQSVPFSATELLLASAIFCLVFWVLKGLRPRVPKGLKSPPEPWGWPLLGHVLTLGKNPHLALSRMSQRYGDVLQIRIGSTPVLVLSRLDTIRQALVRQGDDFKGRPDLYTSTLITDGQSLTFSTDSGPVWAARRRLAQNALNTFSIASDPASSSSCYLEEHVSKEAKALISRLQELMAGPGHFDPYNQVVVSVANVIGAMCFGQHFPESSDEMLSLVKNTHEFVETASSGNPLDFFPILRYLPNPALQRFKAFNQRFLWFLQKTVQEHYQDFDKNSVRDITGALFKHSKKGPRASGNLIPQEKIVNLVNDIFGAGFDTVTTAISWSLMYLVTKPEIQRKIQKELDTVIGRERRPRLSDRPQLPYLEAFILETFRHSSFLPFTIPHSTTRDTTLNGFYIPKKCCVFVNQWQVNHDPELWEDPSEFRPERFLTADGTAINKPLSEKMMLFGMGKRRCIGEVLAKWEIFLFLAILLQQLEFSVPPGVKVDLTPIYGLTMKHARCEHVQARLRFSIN

Q: For `CC(C)NC(=O)COc1cccc(-c2nc(Nc3ccc4[nH]ncc4c3)c3ccccc3n2)c1` [Belumosudil, 2-{3-[4-(1H-indazol-5-ylamino)-2-quinazolinyl]phenoxy}-N-(propan-2-yl) acetamide], which Cmax ([1]; 200 mg belumosudil single dose + itraconazole, read-out: Cmax, geometric mean (geometric CV %)) is on record?
A: 2130 ng/mL

Q: What about the Tmax ([1]; 200 mg belumosudil single dose + itraconazole, read-out: Tmax, median (range)) of the same molecule?
A: 3 h

Q: And the half-life ([1]; 200 mg belumosudil single dose + itraconazole, read-out: t1/2, arithmetic mean (SD) (converted))?
A: 8.79 h

Q: And the half-life ([1]; 200 mg belumosudil single dose + itraconazole, read-out: t1/2, geometric mean (geometric CV %) (converted))?
A: 8.27 h

Q: And the AUC from 0 to 24 h ([1]; 200 mg belumosudil single dose + rabeprazole, read-out: AUC0-24, arithmetic mean (SD))?
A: 1730 ng·h/mL

Q: And the AUC from 0 to 24 h ([1]; 200 mg belumosudil single dose + rabeprazole, read-out: AUC0-24, geometric mean (geometric CV %))?
A: 1510 ng·h/mL

Q: What about the AUC(0-inf) ([1]; 200 mg belumosudil single dose + rabeprazole, read-out: AUCinf, arithmetic mean (SD)) of the same molecule?
A: 1940 ng·h/mL

Q: What about the AUC(0-inf) ([1]; 200 mg belumosudil single dose + rabeprazole, read-out: AUCinf, geometric mean (geometric CV %)) of the same molecule?
A: 1680 ng·h/mL

Q: And the AUC(0-t) ([1]; 200 mg belumosudil single dose + rabeprazole, read-out: AUClast, arithmetic mean (SD))?
A: 1850 ng·h/mL

Q: And the AUC(0-t) ([1]; 200 mg belumosudil single dose + rabeprazole, read-out: AUClast, geometric mean (geometric CV %))?
A: 1580 ng·h/mL

Q: What about the Cmax ([1]; 200 mg belumosudil single dose + rabeprazole, read-out: Cmax, arithmetic mean (SD)) of the same molecule?
A: 262 ng/mL

Q: And the Cmax ([1]; 200 mg belumosudil single dose + rabeprazole, read-out: Cmax, geometric mean (geometric CV %))?
A: 227 ng/mL

Q: What about the Tmax ([1]; 200 mg belumosudil single dose + rabeprazole, read-out: Tmax, median (range)) of the same molecule?
A: 5 h

Q: What about the half-life ([1]; 200 mg belumosudil single dose + rabeprazole, read-out: t1/2, arithmetic mean (SD) (converted)) of the same molecule?
A: 10.4 h

Q: What about the half-life ([1]; 200 mg belumosudil single dose + rabeprazole, read-out: t1/2, geometric mean (geometric CV %) (converted)) of the same molecule?
A: 7.8 h

Q: And the AUC from 0 to 24 h ([1]; 200 mg belumosudil single dose + rifampicin, read-out: AUC0-24, arithmetic mean (SD))?
A: 2630 ng·h/mL

Q: And the AUC from 0 to 24 h ([1]; 200 mg belumosudil single dose + rifampicin, read-out: AUC0-24, geometric mean (geometric CV %))?
A: 2490 ng·h/mL

Q: What about the AUC(0-inf) ([1]; 200 mg belumosudil single dose + rifampicin, read-out: AUCinf, arithmetic mean (SD)) of the same molecule?
A: 2640 ng·h/mL

Q: And the AUC(0-inf) ([1]; 200 mg belumosudil single dose + rifampicin, read-out: AUCinf, geometric mean (geometric CV %))?
A: 2500 ng·h/mL

Q: What about the AUC(0-t) ([1]; 200 mg belumosudil single dose + rifampicin, read-out: AUClast, arithmetic mean (SD)) of the same molecule?
A: 2580 ng·h/mL

Q: What about the AUC(0-t) ([1]; 200 mg belumosudil single dose + rifampicin, read-out: AUClast, geometric mean (geometric CV %)) of the same molecule?
A: 2440 ng·h/mL

Q: And the Cmax ([1]; 200 mg belumosudil single dose + rifampicin, read-out: Cmax, arithmetic mean (SD))?
A: 753 ng/mL

Q: And the Cmax ([1]; 200 mg belumosudil single dose + rifampicin, read-out: Cmax, geometric mean (geometric CV %))?
A: 712 ng/mL

Q: And the Tmax ([1]; 200 mg belumosudil single dose + rifampicin, read-out: Tmax, median (range))?
A: 3 h

Q: And the half-life ([1]; 200 mg belumosudil single dose + rifampicin, read-out: t1/2, arithmetic mean (SD) (converted))?
A: 2.36 h

Q: What about the half-life ([1]; 200 mg belumosudil single dose + rifampicin, read-out: t1/2, geometric mean (geometric CV %) (converted)) of the same molecule?
A: 2.17 h

Q: And the Cmax ([1]; 200 mg, 200 mg belumosudil BID alone, first dose, read-out: Cmax, arithmetic mean (SD))?
A: 1880 ng/mL

Q: And the Cmax ([1]; 200 mg, 200 mg belumosudil BID alone, first dose, read-out: Cmax, geometric mean (geometric CV %))?
A: 1790 ng/mL

Q: And the Tmax ([1]; 200 mg, 200 mg belumosudil BID alone, first dose, read-out: Tmax, median (range))?
A: 3 h

Q: And the Cmax ([1]; 200 mg, 200 mg belumosudil BID alone, second dose, read-out: Cmax, arithmetic mean (SD))?
A: 1870 ng/mL

Q: What about the Cmax ([1]; 200 mg, 200 mg belumosudil BID alone, second dose, read-out: Cmax, geometric mean (geometric CV %)) of the same molecule?
A: 1760 ng/mL

Q: What about the Tmax ([1]; 200 mg, 200 mg belumosudil BID alone, second dose, read-out: Tmax, median (range)) of the same molecule?
A: 15 h

Q: And the AUC from 0 to 24 h ([1]; 200 mg, 200 mg belumosudil BID alone, read-out: AUC0-24, arithmetic mean (SD))?
A: 17900 ng·h/mL

Q: And the AUC from 0 to 24 h ([1]; 200 mg, 200 mg belumosudil BID alone, read-out: AUC0-24, geometric mean (geometric CV %))?
A: 16800 ng·h/mL

Q: What about the AUC(0-inf) ([1]; 200 mg, 200 mg belumosudil BID alone, read-out: AUCinf, arithmetic mean (SD)) of the same molecule?
A: 20100 ng·h/mL

Q: And the AUC(0-inf) ([1]; 200 mg, 200 mg belumosudil BID alone, read-out: AUCinf, geometric mean (geometric CV %))?
A: 18800 ng·h/mL

Q: And the AUC(0-t) ([1]; 200 mg, 200 mg belumosudil BID alone, read-out: AUClast, arithmetic mean (SD))?
A: 20300 ng·h/mL

Q: And the AUC(0-t) ([1]; 200 mg, 200 mg belumosudil BID alone, read-out: AUClast, geometric mean (geometric CV %))?
A: 18900 ng·h/mL

Q: And the half-life ([1]; 200 mg, 200 mg belumosudil BID alone, read-out: t1/2, arithmetic mean (SD) (converted))?
A: 7.15 h

Q: What about the half-life ([1]; 200 mg, 200 mg belumosudil BID alone, read-out: t1/2, geometric mean (geometric CV %) (converted)) of the same molecule?
A: 6.86 h

Q: And the AUC from 0 to 24 h ([1]; 200 mg, 200 mg belumosudil single dose alone, read-out: AUC0-24, arithmetic mean (SD))?
A: 8830 ng·h/mL

Q: And the AUC from 0 to 24 h ([1]; 200 mg, 200 mg belumosudil single dose alone, read-out: AUC0-24, geometric mean (geometric CV %))?
A: 8430 ng·h/mL

Q: And the AUC(0-inf) ([1]; 200 mg, 200 mg belumosudil single dose alone, read-out: AUCinf, arithmetic mean (SD))?
A: 9580 ng·h/mL

Q: And the AUC(0-inf) ([1]; 200 mg, 200 mg belumosudil single dose alone, read-out: AUCinf, geometric mean (geometric CV %))?
A: 9080 ng·h/mL

Q: And the AUC(0-t) ([1]; 200 mg, 200 mg belumosudil single dose alone, read-out: AUClast, arithmetic mean (SD))?
A: 9220 ng·h/mL

Q: What about the AUC(0-t) ([1]; 200 mg, 200 mg belumosudil single dose alone, read-out: AUClast, geometric mean (geometric CV %)) of the same molecule?
A: 8750 ng·h/mL

Q: What about the Cmax ([1]; 200 mg, 200 mg belumosudil single dose alone, read-out: Cmax, arithmetic mean (SD)) of the same molecule?
A: 1850 ng/mL

Q: And the Cmax ([1]; 200 mg, 200 mg belumosudil single dose alone, read-out: Cmax, geometric mean (geometric CV %))?
A: 1770 ng/mL

Q: And the Tmax ([1]; 200 mg, 200 mg belumosudil single dose alone, read-out: Tmax, median (range))?
A: 3 h

Q: And the half-life ([1]; 200 mg, 200 mg belumosudil single dose alone, read-out: t1/2, arithmetic mean (SD) (converted))?
A: 9.28 h

Q: What about the half-life ([1]; 200 mg, 200 mg belumosudil single dose alone, read-out: t1/2, geometric mean (geometric CV %) (converted)) of the same molecule?
A: 7.89 h

Q: And the Tmax ([1]; coadministration of rabeprazole, read-out: delay of median Tmax)?
A: 2 h

Q: And the “share of belumosudil metabolism” value (CYP1A2)?
A: < 5%
